Measurements from patent publication US7179920B2, “3-thia-4-arylquinolin-2-one derivatives” (Bristol-Myers Squibb Company, priority 2003, dated 2007).

Columns and labels:
[1] = system: rabbit corpus cavernosum tissue; assay: Rabbit corpus cavernosum strips: relaxation of phenylephrine-induced force; conditions: Oryctolagus cuniculus; inhibition of phenylephrine (3 μM)-induced force as compared to vehicle control; read-out: % Inhibition of force (RCC strips)
Method: The ability of the compounds of the invention to relax rabbit corpus cavernosum tissue as a model for the treatment of erectile dysfunction is described as follows. New Zealand white rabbits (3.4–3.7 kg) were euthanized by sodium pentobarbital (100 mg/kg) overdose. The penis from each animal was rapidly removed and immersed in a cold oxygenated modified Krebs Henseleit bicarbonate buffer. The penis' outer tunica was removed and the corpus cavernosum smooth muscle obtained and cut into strips approximately 3–5 mm long. The strips were suspended in tissue baths containing physiological salt solution (see above), and allowed to equilibrate for at least one hour under resting tension of 1.0 gram. Isometric force was measured as described above. Tissue strips were stimulated with the α-agonist phenylephrine (3 μM) and allowed to reach a steady level of force prior to the addition of test compounds. The results are expressed as the percentage inhibition of phenylephrine-induced force as compared to vehicle control.

[2] = system: cloned mammalian (mSlo or hSlo) BK (Maxi-K) channel; assay: Assay for BK channel openers: two-electrode voltage clamp of BK-mediated outward current in Xenopus oocytes; assay type: cell-based; conditions: voltage step to +140 mV
Description: The experimental media (modified Barth's solution) consisted of millimolar (“mM”): NaCl (88), NaHCO3 (2.4), KCl (1.0), HEPES (10), MgSO4 (0.82), Ca(NO3)2 (0.33), CaCl2 (0.41); pH 7.5.

[3] = system: rat small intestine tissue; assay: Rat small intestine (ileum) strips: inhibition of nifedipine-sensitive force; conditions: integral of nifedipine-sensitive force, 30 min post-compound
Description: The ability of the compounds of the invention to relax rat small intestine tissue as a model for the treatment of irritable bowel syndrome is described as follows. Male rats (Harlan, Sprague Dawley, 250–350 g) were sacrificed by decapitation. A portion of small intestine (ileum) was removed and the attached connective tissues and intestinal contents removed. The ileum was cut into segments of ≦1 cm in length. The segments were mounted longitudinally between fixed hooks in organ baths containing warm (37° C.) physiological salt solution (composition in mM: NaCl 118.4, KCl 4.7, KH2PO4 1.2, MgSO4 1.2, CaCl2 1.8, Glucose 10.1, NaHCO3 25; gassed with 95% O2/5% CO2, pH 7.4). A stable tension of ˜1.5 g was maintained in the tissue segments during the equilibration period of 45 minutes. Changes in muscle tension were measured with isometric force transducers (Grass, FT-03C) and recorded using AcqKnowledge data acquisition system (AcqKnowledge for MP100WS, Biopac Systems Inc., Goleta, Calif.). Compound or vehicle was added in the baths for 30 minutes. “Zero” active force was established at the end of the experiment using nifedipine (20 μM). The effects of compounds or vehicle on force was determined by measuring the integral of nifedipine-sensitive force (including resting tone and spontaneous contractions) pre- and 30 min post-compound (or vehicle) addition. Results are expressed as the percentage inhibition of force. DMSO vehicle inhibited force (integral) by −0.6±3.0% (n=25).

[4] = at 20 μM, percent increase over BK current in controls
[5] = at 1 μM, percent increase over BK current in controls

COc1ccc(Cl)cc1-c1c(SCC(=O)O)c(=O)[nH]c2ccc(C(F)(F)F)cc12 [Example 1]
melting point: 235 °C
inhibition [1]: 14%
% MaxiK opening [2, 4]: 155%

COc1ccc(Cl)cc1-c1c(SCCNC(N)=O)c(=O)[nH]c2ccc(C(F)(F)F)cc12 [Example 4, 1-{2-[4-(5-Chloro-2-methoxy-phenyl)-2-oxo-6-trifluoromethyl-1,2-dihydro-quinolin-3-ylsulfanyl]-ethyl}urea]
% MaxiK opening [2, 4]: 140%

COCCSc1c(-c2cc(Cl)ccc2O)c2cc(C(F)(F)F)ccc2[nH]c1=O [Example 12, 4-(5-Chloro-2-hydroxyphenyl)-3-(2-methoxyethylsulfanyl)-6-trifluoromethyl-1H-quinolin-2-one]
% MaxiK opening [2, 5]: 208^⋄ %

O=c1[nH]c2ccc(C(F)(F)F)cc2c(-c2cc(Cl)ccc2O)c1SCCO [Example 10, 4-(5-Chloro-2-hydroxyphenyl)-3-(2-hydroxyethylsulfanyl)-6-trifluoromethyl-1H-quinolin-2-one]
melting point: 278 to 279 °C
inhibition [1]: 43%
% MaxiK opening [2, 4]: 348%

O=c1[nH]c2ccc(C(F)(F)F)cc2c(-c2cc(Cl)ccc2O)c1SC[C@@H](O)CO [Example 18, (S)-4-(5-Chloro-2-hydroxyphenyl)-3-(2,3-dihydroxypropylsulfanyl)-6-trifluoromethyl-1H-quinolin-2-one]
inhibition [1]: 45%
% MaxiK opening [2, 4]: 223%

CCNC(=O)NCCSc1c(-c2cc(Cl)ccc2O)c2cc(C(F)(F)F)ccc2[nH]c1=O [Example 7, 1-{2-[4-(5-Chloro-2-hydroxy-phenyl)-2-oxo-6-trifluoromethyl-1,2-dihydro-quinolin-3-ylsulfanyl]-ethyl}-3-ethyl-urea]
% MaxiK opening ([2]; marked ⋄⋄ (concentration footnote not given)): 160^⋄⋄ %

O=c1[nH]c2ccc(C(F)(F)F)cc2c(-c2cc(Cl)ccc2O)c1S [Example 8, 4-(5-Chloro-2-hydroxyphenyl)-3-mercapto-6-trifluoromethyl-1H-quinolin-2-one]
% MaxiK opening [2, 4]: 197%

COc1ccc(Cl)cc1-c1c(S)c(=O)[nH]c2ccc(C(F)(F)F)cc12 [Example 9, 4-(5-Chloro-2-methoxyphenyl)-3-mercapto-6-trifluoromethyl-1H-quinolin-2-one]
melting point: 239 to 241 °C
% MaxiK opening [2, 5]: 149^⋄ %

NC(=O)NCCSc1c(-c2cc(Cl)ccc2O)c2cc(C(F)(F)F)ccc2[nH]c1=O [Example 5, 1-{2-[4-(5-Chloro-2-hydroxy-phenyl)-2-oxo-6-trifluoromethyl-1,2-dihydro-quinolin-3-ylsulfanyl]-ethyl}urea]
inhibition [1]: 65%
% MaxiK opening [2, 4]: 165%
% Inhibition of force (RSI strips) [3]: 21%

N#CCCSc1c(-c2cc(Cl)ccc2O)c2cc(C(F)(F)F)ccc2[nH]c1=O [Example 11, 3-[4-(5-Chloro-2-hydroxyphenyl)-2-oxo-6-trifluoromethyl-1,2-dihydro-quinolin-3-ylsulfanyl]propionitrile]
melting point: 140 °C
% MaxiK opening [2, 4]: 189%

COc1ccc(Cl)cc1-c1c(SCCCO)c(=O)[nH]c2ccc(C(F)(F)F)cc12 [Example 15, 4-(5-Chloro-2-methoxyphenyl)-3-(3-hydroxypropylsulfanyl)-6-trifluoromethyl-1H-quinolin-2-one]
melting point: 211 °C
% MaxiK opening [2, 4]: 140%

O=c1[nH]c2ccc(C(F)(F)F)cc2c(-c2cc(Cl)ccc2O)c1SCCCO [Example 14, 4-(5-Chloro-2-hydroxyphenyl)-3-(3-hydroxypropylsulfanyl)-6-trifluoromethyl-1H-quinolin-2-one]
melting point: 178 to 180 °C
inhibition [1]: 23%
% MaxiK opening [2, 4]: 242%

COc1ccc(Cl)cc1-c1c(S/C=C/CO)c(=O)[nH]c2ccc(C(F)(F)F)cc12 [Example 21]
melting point: 148 to 150 °C
% MaxiK opening [2, 5]: 135^⋄ %

COc1ccc(Cl)cc1-c1c(SCC(O)CO)c(=O)[nH]c2ccc(C(F)(F)F)cc12 (centres unmarked) [Example 20, 4-(5-Chloro-2-methoxyphenyl)-3-(2,3-dihydroxypropylsulfanyl)-6-trifluoromethyl-1H-quinolin-2-one]
melting point: 110 to 114 °C
% MaxiK opening [2, 4]: 178%

CNC(=O)NCCSc1c(-c2cc(Cl)ccc2O)c2cc(C(F)(F)F)ccc2[nH]c1=O [Example 6, 1-{2-[4-(5-Chloro-2-hydroxy-phenyl)-2-oxo-6-trifluoromethyl-1,2-dihydro-quinolin-3-ylsulfanyl]-ethyl}-3-methyl-urea]
% MaxiK opening [2, 4]: 176%

CCNC(=O)NCCSc1c(-c2cc(Cl)ccc2OC)c2cc(C(F)(F)F)ccc2[nH]c1=O [Example 3, 1-{2-[4-(5-Chloro-2-methoxy-phenyl)-2-oxo-6-trifluoromethyl-1,2-dihydro-quinolin-3-ylsulfanyl]-ethyl}-3-ethyl-urea]
% MaxiK opening [2, 4]: 123%
% Inhibition of force (RSI strips) [3]: 17b %

O=c1[nH]c2ccc(C(F)(F)F)cc2c(-c2cc(Cl)ccc2O)c1SCC(O)CO (racemic) [Example 17, (±)-4-(5-Chloro-2-hydroxyphenyl)-3-(2,3-dihydroxypropylsulfanyl)-6-trifluoromethyl-1H-quinolin-2-one]
melting point: 178 to 180 °C
inhibition [1]: 31%
% MaxiK opening [2, 4]: 246%
% Inhibition of force (RSI strips) [3]: 6%

COc1ccc(Cl)cc1-c1c(SCCO)c(=O)[nH]c2ccc(C(F)(F)F)cc12 [Example 16, 4-(5-Chloro-2-methoxyphenyl)-3-(2-hydroxyethylsulfanyl)-6-trifluoromethyl-1H-quinolin-2-one]
melting point: 98 to 100 °C
% MaxiK opening [2, 4]: 149%

O=c1[nH]c2ccc(C(F)(F)F)cc2c(-c2cc(Cl)ccc2O)c1SC[C@H](O)CO [Example 19, (R)-4-(5-Chloro-2-hydroxyphenyl)-3-(2,3-dihydroxypropylsulfanyl)-6-trifluoromethyl-1H-quinolin-2-one]
inhibition [1]: 41%
% MaxiK opening [2, 4]: 256%

N#CCCCSc1c(-c2cc(Cl)ccc2O)c2cc(C(F)(F)F)ccc2[nH]c1=O [Example 13, 4-[4-(5-Chloro-2-hydroxyphenyl)-2-oxo-6-trifluoromethyl-1,2-dihydro-quinolin-3-ylsulfanyl]butyronitrile]
melting point: 217 °C
% MaxiK opening [2, 4]: 198%
